Legend:
[1] = molecular target: T1, I-125-GRP binding to NIH-3T3 cells (Mus musculus, UniProt P21729); assay: In vitro receptor binding assay: inhibition of binding of I-125-GRP to NIH-3T3 cells; design: species or system Murine; details: for IC50: […] 125I-GRP, 30 min RT, read-out: IC50, inhibition of binding of labeled GRP to NIH-3T3 cells; for Binding of competing ligand relative to control ligand Neuromedin C: competition with 125I-GRP
T1 construct: Murine NIH-3T3 fibroblast cells (ATCC No. CCL92) were released from flasks; endogenous in cells; host or cells: NIH-3T3 murine fibroblasts (ATCC No. CCL92), whole cells
T1 sequence (P21729 whole entry): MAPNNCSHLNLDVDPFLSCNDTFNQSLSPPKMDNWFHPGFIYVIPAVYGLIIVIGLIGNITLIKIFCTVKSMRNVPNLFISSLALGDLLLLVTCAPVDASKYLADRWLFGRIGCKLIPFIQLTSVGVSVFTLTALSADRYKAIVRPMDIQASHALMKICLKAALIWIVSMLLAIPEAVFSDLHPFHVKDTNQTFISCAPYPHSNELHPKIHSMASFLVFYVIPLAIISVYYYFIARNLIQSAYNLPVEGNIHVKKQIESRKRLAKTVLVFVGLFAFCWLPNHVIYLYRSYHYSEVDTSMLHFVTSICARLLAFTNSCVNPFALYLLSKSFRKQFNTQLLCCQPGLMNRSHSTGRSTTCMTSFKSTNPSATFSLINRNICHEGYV
Experimental: Murine NIH-3T3 fibroblast cells (ATCC No. CCL92) were released from flasks with EDTA harvest buffer, consisting of 0.6 mm EDTA, 25 mm PBS (8 g NaCl, 0.2 g KCl, 1.44 g Na2 PO4, 0.2 g KH2 PO4 per liter), pH 7.4, 37° C., by incubation for 15 min.
The cells were washed twice with Assay Buffer (50 mM Tris-HCl, 100 mM NaCl, 0.1% BSA, 0.1 mg/mL bacitracin, 0.05 mg/mL aprotinin, 1 mM PMSF), pH 7.4, 4° C. and resuspended at a density of 3×10^6 cells/mL.
A 0.5 mL Eppendorf tube was prepared for each assay point by incubating the tube overnight with a blocking solution of 1% BSA, 50 mM Tris. HCl, 100 mM NaCl, pH 7.4. The blocking solution was removed.
Each tube was charged with 4×10^4 cells. […] Three control tubes with no cells or competitor were prepared for measurement of total counts added.
The samples were incubated for 30 min at RT. The contents of each tube were transferred into the wells of a 96-well filter bottom plate (Millipore Multiscreen, Arlington Heights, Mass.) and filtered under moderate vacuum (water aspirator). Each filter was washed three times by filling each well with ice cold PBS, Ph 7.4, 0.1% BSA. The plate was allowed to dry. Dried filters were placed into gamma-counter tubes (12×75 mm glass). The radioactivity on each filter and in the control tubes was counted using a LKB gamma counter. The bound/total added for each assay tube was calculated.

[2] = tested on: HT-29 colon carcinoma xenograft tumors; details: Tc-99m labeled, i.v., 22 hours after injection
Experimental: Biodistribution and imaging studies were conducted using female Nu/Nu HT-29 xenograft tumor-bearing mice, a model for colon carcinoma. […] Two μg of the test compounds were labeled with 100 μCi of Tc-99m and each was injected into 10 Nu/Nu mice bearing HT-29 tumors on the flank. The organs of interest were removed from half the mice at 3 hr, and the organs of the remaining mice were removed at 22 h. Each set of organs were counted for gamma radiation.
Twenty μg of each construct was dissolved in 20 mM sodium acetate, pH 4.5, at a minimum concentration of 30 μg/mn. The pH was checked and adjusted as necessary. A 50 mCi vial of ^99m TcO4 Na (Syncor) was added to a vial of Glucoscan® (Dupont) in a leaded glass shield using a shielded tuberculin syringe. 100 μL of the resulting solution was dose calibrated, and the volume required for 20 doses of 100 μCi was calculated (ca. 40-45 μL). This amount was divided into two equal parts and added to the two solutions of construct in microfuge tubes and incubated for 1 h at 37° C. Percent chelation was checked by chromatography on ITLC developed with 0.9% saline, and analyzed by autoradiography counter. The two solutions were diluted to 2.2 mL each with 0.9% saline. The diluted solutions werethen divided into numbered tuberculin syringes (200 μL each). […]
Dissected tissues were weighed, and their content of Tc-99m was determined by gamma counting.

| Substance | IC50 [1] [nM] | Binding of competing ligand relative to control ligand Neuromedin C [1] | Localization to HT-29 tumors [2] |
| --- | --- | --- | --- |
| Benzoic acid bis-thiosemicarbazide derived from N-acetyl-Neuromedin C-hydrazide [Compound 6] | 43.3 | within an order of magnitude of the control ligand Neuromedin C | evident |
| Benzoic acid bis-thiourea derived from Neuromedin-C [Compound 3] | 10.6 | within an order of magnitude of the control ligand Neuromedin C | evident |

— patent publication US5593656A, “Metal-binding targeted polypeptide constructs” (Cytogen Corporation, priority 1995, dated 1997)
